Test results published in the supplement of paper PMC10307832.

Assays:
Test in all cases: relative viability (nuclei count vs DMSO), 5 days (fraction); higher = more cells survive
[1] = compound: CN1CCN(CC1)C2=CC(=C(C=C2)NC3=NC(=C(S3)C(=O)C4=C(C=CC=C4Cl)Cl)N)OC [XMD14-99] + NC(=O)Nc1cc(-c2cccc(F)c2)sc1C(=O)N[C@H]1CCCNC1 [AZD7762] (partner 0.2 µM)
Procedure, shortened: (§1)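 Lung cancer cell lines in 1536-well plates got either a single drug or a fixed anchor-drug dose together with five library-drug doses (not always all listed) in √10 steps, by pin tool, on the day after seeding. Nuclei were counted after 5 days, and relative viability is the treated-to-vehicle ratio of nuclei counts. Values are medians of duplicate plates.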

[2] = compound: CN1CCN(CC1)C2=CC(=C(C=C2)NC3=NC(=C(S3)C(=O)C4=C(C=CC=C4Cl)Cl)N)OC [XMD14-99] + O=C(CCCCCCC(=O)Nc1ccccc1)NO [Vorinostat] (partner 1 µM)
Procedure, shortened: as §1

[3] = compound: N[C@@H]1CCCN(c2c(/C=C3\SC(=O)NC3=O)cccc2-c2ccccc2)C1 [AZD1208] + COc1cc2c(Oc3ccc(NC(=O)C4(C(=O)Nc5ccc(F)cc5)CC4)cc3F)ccnc2cc1OCCCN1CCOCC1 [Foretinib] (partner 0.25 µM)
Procedure, shortened: as §1

[4] = compound: N[C@@H]1CCCN(c2c(/C=C3\SC(=O)NC3=O)cccc2-c2ccccc2)C1 [AZD1208] + C[C@@H](Oc1cc(-c2cnn(C3CCNCC3)c2)cnc1N)c1c(Cl)ccc(F)c1Cl [Crizotinib] (partner 1 µM)
Procedure, shortened: as §1

Cell Line | relative viability ([1]; first compound 0.08 µM) | relative viability ([1]; first compound 0.8 µM) | relative viability ([1]; first compound 2.53 µM) | relative viability ([1]; first compound 8 µM) | relative viability ([2]; first compound 0.08 µM) | relative viability ([2]; first compound 0.8 µM) | relative viability ([2]; first compound 2.53 µM) | relative viability ([2]; first compound 8 µM) | relative viability ([3]; first compound 0.08 µM) | relative viability ([3]; first compound 0.253 µM) | relative viability ([3]; first compound 0.8 µM) | relative viability ([3]; first compound 2.53 µM) | relative viability ([3]; first compound 8 µM) | relative viability ([4]; first compound 0.08 µM) | relative viability ([4]; first compound 0.253 µM) | relative viability ([4]; first compound 0.8 µM) | relative viability ([4]; first compound 2.53 µM) | relative viability ([4]; first compound 8 µM)
HCC-15 | 1.22 | 1.17 | 1.21 | 1.04 | 0.839 | 0.825 | 0.728 | 0.587 | 0.956 | 0.994 | 0.876 | 0.88 | 0.855 | 0.849 | 0.788 | 0.707 | 0.752 | 0.641
HCC-78 | 0.567 | 0.565 | 0.749 | 0.404 | 0.404 | 0.408 | 0.369 | 0.382 | 0.549 | 0.499 | 0.512 | 0.526 | 0.625 | 0.338 | 0.366 | 0.333 | 0.356 | 0.323
HCC-366 | 0.237 | 0.215 | 0.251 | 0.187 | 0.42 | 0.324 | 0.296 | 0.218 | 0.903 | 0.985 | 0.843 | 0.949 | 0.899 | 0.479 | 0.593 | 0.536 | 0.452 | 0.246
HCC-827 | 0.227 | 0.202 | 0.203 | 0.191 | 0.929 | 0.571 | 0.74 | 0.701 | 1.14 | 1.1 | 1.05 | 1 | 1.03 | 0.93 | 0.992 | 0.931 | 0.915 | 0.936
HOP-62 | 0.489 | 0.57 | 0.726 | 0.513 | 0.668 | 0.804 | 0.661 | 0.441 | 1.03 | 1.16 | 1.02 | 1.03 | 1.06 | 0.991 | 0.869 | 0.895 | 0.883 | 0.969
LC-2-ad | 0.869 | 0.872 | 0.889 | 0.735 | 0.672 | 0.704 | 0.646 | 0.553 | 0.903 | 0.924 | 0.871 | 0.85 | 0.912 | 0.488 | 0.401 | 0.421 | 0.383 | 0.392
LCLC-97TM1 | 0.346 | 0.293 | 0.303 | 0.227 | 0.732 | 0.661 | 0.604 | 0.315 | 0.914 | 0.945 | 1.03 | 0.891 | 0.8 | 0.464 | 0.515 |  | 0.318 | 0.294
LCLC-103H | 0.804 | 0.837 | 0.781 | 0.681 | 0.786 | 0.798 | 0.759 | 0.664 | 0.771 | 0.665 | 0.56 | 0.558 | 0.485 | 1.03 | 1.11 | 1.05 | 1.31 | 1.03
LK-2 | 0.375 | 0.41 | 0.354 | 0.235 | 0.364 | 0.396 | 0.548 | 0.462 | 0.935 | 0.707 | 0.821 | 0.574 | 0.421 | 0.28 | 0.211 | 0.212 | 0.275 | 0.252
LOU-NH91 | 0.785 | 0.814 | 0.714 | 0.675 | 0.947 | 1.03 | 0.805 | 0.725 | 0.943 | 0.876 | 0.874 | 0.93 | 0.909 | 0.728 | 0.728 | 0.727 | 0.693 | 0.721
LU99A | 0.3 | 0.227 | 0.31 | 0.235 | 0.53 | 0.462 | 0.444 | 0.37 | 0.707 | 0.882 | 0.782 | 0.82 | 0.611 | 0.517 | 0.541 | 0.519 | 0.488 | 0.446
LXF-289 | 1.14 | 0.969 | 1.12 | 0.98 | 0.754 | 0.696 | 0.726 | 0.738 | 0.978 | 1.03 | 0.996 | 0.962 | 1.03 | 0.853 | 0.894 | 0.8 | 0.814 | 0.928
NCI-H23 | 0.284 | 0.312 | 0.25 | 0.188 | 0.641 | 0.581 | 0.604 | 0.464 | 0.914 | 0.648 | 0.9 | 0.967 | 0.748 | 0.377 | 0.467 | 0.372 | 0.426 | 0.34
NCI-H322M | 0.593 | 0.542 | 0.583 | 0.509 | 0.862 | 0.965 | 0.852 | 0.746 | 0.925 | 0.873 | 0.869 | 0.966 | 0.996 | 1.14 | 0.972 | 0.975 | 0.607 | 0.974
NCI-H358 | 0.487 | 0.593 | 0.461 | 0.455 | 0.686 | 0.653 | 0.553 | 0.309 | 0.594 | 0.692 | 0.573 | 0.698 | 0.522 | 0.537 | 0.559 | 0.499 | 0.566 | 0.438
NCI-H441 | 0.939 | 1.2 | 1.3 | 0.793 | 0.823 | 0.75 | 0.745 | 0.681 | 1.1 | 0.761 | 0.764 | 0.712 | 0.718 | 0.73 | 0.674 | 0.667 | 0.526 | 0.42
